From ChEMBL document CHEMBL1201862, “PubChem BioAssay data set” (2004)
Active and inactive are the calls of the source.

What was measured:
Cytochrome P450 2D6 = Cytochrome P450 2D6 (Homo sapiens, UniProt P10635);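 also: CYP2D6 member of a cytochrome P450 panel assay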
Cytochrome P450 2C19 = Cytochrome P450 2C19 (Homo sapiens, UniProt P33261); test: Cytochrome panel assay with activity outcomes. Panel member name: p450-cyp2c19 Compounds with AC50 equal or less than 10 uM are considered active; format: functional
Sequence of Cytochrome P450 2C19 (P33261 whole entry): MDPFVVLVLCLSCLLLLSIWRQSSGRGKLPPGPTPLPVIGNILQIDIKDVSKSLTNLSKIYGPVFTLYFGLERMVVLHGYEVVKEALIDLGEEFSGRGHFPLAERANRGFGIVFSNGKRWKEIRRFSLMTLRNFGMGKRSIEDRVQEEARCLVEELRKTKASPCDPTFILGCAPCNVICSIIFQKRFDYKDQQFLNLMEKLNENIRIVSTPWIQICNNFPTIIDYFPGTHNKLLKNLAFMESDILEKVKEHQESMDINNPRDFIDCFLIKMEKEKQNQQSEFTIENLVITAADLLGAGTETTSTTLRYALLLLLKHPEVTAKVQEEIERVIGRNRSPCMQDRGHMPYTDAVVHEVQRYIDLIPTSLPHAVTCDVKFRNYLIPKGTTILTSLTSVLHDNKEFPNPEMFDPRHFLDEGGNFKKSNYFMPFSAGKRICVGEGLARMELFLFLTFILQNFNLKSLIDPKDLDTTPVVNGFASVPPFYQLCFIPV

[1] = target: T1, Zinc finger protein mex-5 (Caenorhabditis elegans, UniProt Q9XUB2); test: potency of MEX-5 RNA-binding blockers – biochemical, C. elegans, fluorescence polarization, dose response (AID 1960)
T1 sequence (Q9XUB2 whole entry): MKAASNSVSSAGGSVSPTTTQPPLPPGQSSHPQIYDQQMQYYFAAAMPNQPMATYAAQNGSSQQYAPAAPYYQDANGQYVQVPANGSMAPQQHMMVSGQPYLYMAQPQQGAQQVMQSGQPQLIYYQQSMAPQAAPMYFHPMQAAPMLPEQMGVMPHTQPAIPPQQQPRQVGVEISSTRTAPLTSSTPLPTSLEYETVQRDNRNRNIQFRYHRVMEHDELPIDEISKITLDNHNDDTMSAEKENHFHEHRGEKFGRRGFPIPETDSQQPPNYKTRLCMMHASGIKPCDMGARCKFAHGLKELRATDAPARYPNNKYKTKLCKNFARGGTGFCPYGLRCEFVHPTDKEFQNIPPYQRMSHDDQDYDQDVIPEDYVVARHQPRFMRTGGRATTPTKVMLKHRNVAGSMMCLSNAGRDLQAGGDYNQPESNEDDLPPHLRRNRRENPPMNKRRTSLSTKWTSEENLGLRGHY

[2] = target: T2, RNA-binding protein pos-1 (Caenorhabditis elegans, UniProt G5EF15); test: disruptors of C. elegans POS-1 RNA interaction – biochemical, fluorescence polarization, dose response (AID 1964);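 also: purified POS-1 fused to maltose binding protein made in E. coli; potency of compounds blocking POS-1 binding to fluorescent RNA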
T2 sequence (G5EF15 whole entry): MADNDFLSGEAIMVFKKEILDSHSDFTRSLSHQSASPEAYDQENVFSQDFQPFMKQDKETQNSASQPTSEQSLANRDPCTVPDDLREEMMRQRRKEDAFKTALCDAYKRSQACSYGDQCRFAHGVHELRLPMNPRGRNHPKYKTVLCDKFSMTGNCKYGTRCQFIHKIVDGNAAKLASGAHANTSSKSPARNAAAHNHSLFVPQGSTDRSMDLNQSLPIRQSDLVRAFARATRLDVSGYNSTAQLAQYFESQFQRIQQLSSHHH

[3] = viability of uninfected HEp-2 cells – cell-based, HTS, cytotoxicity control for RSV inhibitor project, dose response (AID 2410); format: functional; conditions: human respiratory syncytial virus
[4] = target: T3, Rac GTPase-activating protein 1 (Homo sapiens, UniProt Q9H0H5); test: blockers of MgcRacGAP-driven Rac1 GTP hydrolysis – biochemical, ADP Hunter fluorescence, primary and confirmatory, confirmation (AID 624330); format: functional
T3 sequence (Q9H0H5 whole entry): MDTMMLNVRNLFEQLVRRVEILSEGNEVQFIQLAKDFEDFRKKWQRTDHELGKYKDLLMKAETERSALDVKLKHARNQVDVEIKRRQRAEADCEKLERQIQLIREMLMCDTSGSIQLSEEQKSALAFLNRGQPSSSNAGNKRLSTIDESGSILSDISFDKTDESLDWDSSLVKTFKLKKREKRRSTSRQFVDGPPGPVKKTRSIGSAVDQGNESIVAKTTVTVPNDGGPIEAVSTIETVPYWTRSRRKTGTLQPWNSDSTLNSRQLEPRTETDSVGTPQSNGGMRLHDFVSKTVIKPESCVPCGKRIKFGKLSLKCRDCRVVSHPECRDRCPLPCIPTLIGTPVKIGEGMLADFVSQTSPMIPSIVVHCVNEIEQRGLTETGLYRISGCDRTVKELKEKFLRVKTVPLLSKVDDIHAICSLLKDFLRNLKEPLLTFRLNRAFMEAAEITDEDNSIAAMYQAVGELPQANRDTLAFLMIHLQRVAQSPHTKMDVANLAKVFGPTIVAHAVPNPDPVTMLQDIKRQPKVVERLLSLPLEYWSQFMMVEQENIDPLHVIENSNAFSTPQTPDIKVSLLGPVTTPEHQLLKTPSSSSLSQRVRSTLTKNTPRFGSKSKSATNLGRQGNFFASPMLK

[5] = Trypanosoma cruzi growth suppression in host cells – NIH3T3 host cells, beta-gal luminescence, confirmation (AID 2044); format: functional, cell-based;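 also: intracellular parasites grown in NIH/3T3 mouse fibroblasts as host cells; luminescent beta-galactosidase reporter signal from transgenic T. cruzi replicating inside host cells; inhibitors lower the luminescence signal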
[6] = NIH3T3 cell viability loss – ATP luminescence, mouse fibroblasts, counter-screen, dose response (AID 2010); format: functional, cell-based;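 also: cells exposed to compound for about 90 hours before reading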
Cytochrome P450 1A2 = target: T4, Cytochrome P450 1A2 (Homo sapiens, UniProt P05177);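 also: PubChem cytochrome P450 panel assay, CYP1A2 panel member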
T4 sequence (P05177 whole entry): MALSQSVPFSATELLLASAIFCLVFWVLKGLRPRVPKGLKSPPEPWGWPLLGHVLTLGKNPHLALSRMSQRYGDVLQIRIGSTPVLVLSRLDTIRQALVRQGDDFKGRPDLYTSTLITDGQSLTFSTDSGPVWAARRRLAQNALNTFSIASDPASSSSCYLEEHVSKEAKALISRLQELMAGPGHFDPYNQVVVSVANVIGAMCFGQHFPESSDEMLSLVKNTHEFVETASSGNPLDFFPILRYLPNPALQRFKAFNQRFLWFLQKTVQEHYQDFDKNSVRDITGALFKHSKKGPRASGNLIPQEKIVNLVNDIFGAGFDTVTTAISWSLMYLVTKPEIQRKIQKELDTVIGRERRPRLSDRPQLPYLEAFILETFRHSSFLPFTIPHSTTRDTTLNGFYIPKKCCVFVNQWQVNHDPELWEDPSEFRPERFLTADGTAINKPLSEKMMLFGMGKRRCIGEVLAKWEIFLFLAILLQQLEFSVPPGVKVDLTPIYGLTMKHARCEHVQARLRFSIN

Streptococcus = test: GAS UMAA2166 growth inhibition – luminescence, BacTiterGlo, counter-screen for streptokinase expression inhibitor project, dose response (AID 1915); format: functional, organism-based;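 also: potency for reduction of bacterial viability or growth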
[7] = test system: Streptococcus sp. 'group A'; test: Streptococcus pyogenes SK(-)GAS viability under kanamycin – luminescence, BacTiterGlo, confirmation, counter-screen for streptokinase expression inhibitor project, dose response (AID 1900); format: functional, organism-based

Sequence of Cytochrome P450 2D6 (P10635 whole entry): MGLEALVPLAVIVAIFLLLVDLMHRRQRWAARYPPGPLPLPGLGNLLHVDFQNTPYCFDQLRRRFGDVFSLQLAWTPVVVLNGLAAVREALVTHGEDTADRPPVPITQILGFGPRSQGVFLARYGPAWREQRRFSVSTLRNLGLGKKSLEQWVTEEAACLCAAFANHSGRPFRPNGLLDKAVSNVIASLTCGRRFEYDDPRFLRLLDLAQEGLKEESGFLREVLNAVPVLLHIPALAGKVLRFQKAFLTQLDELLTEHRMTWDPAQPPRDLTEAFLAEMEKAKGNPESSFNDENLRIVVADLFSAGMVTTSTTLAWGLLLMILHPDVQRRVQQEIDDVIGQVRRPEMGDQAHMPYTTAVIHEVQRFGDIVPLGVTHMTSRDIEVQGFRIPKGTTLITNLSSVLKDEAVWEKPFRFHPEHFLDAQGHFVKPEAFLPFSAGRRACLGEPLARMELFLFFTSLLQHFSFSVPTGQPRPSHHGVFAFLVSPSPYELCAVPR

## COc1cc(C(=O)NCCC(=O)NCc2ccc3c(c2)OCO3)cc(OC)c1OC
Cytochrome P450 2D6
  AC50: 25.1 µM (inconclusive)
Cytochrome P450 2C19; read-out: AC50
  AC50: 28.2 µM (inconclusive)

## COC(=O)c1cccc(-n2c(C)cc(C=O)c2C)c1C
[1]
  EC50: > 300 µM (not active)
[2]
  EC50: > 300 µM (not active)

## CC1(OC(=O)c2ccco2)C(=O)C=C2C=C(c3ccc(C#N)cc3)OC=C2C1=O (stereo not drawn)
[1]
  EC50: 28.9 µM (active)
[2]
  EC50: 52.2 µM (active)

## Cc1c(C(=O)NCCSCc2c(F)cccc2Cl)cnn1-c1ccc(Cl)cc1
[3]
  CC50: 16.8 µM (active)

## Cc1cc(C)nc(N/N=C/c2c[nH]c3ccccc23)n1
[4]
  IC50: 63.2 µM (active)

## CCc1c(C(=O)NCc2ccccc2Cl)[nH]c(C)c1C(C)=O
[3]
  CC50: > 50 µM (active)

## Cc1ccccc1C(=O)Nc1cc(-c2cc(C(C)(C)C)oc2C)nn1C
[3]
  CC50: 19.7 µM (active)

## COc1ccc(CCNC(=O)c2ccc3c(=O)n(Cc4ccco4)c(=S)[nH]c3c2)cc1OC
Cytochrome P450 2C19; read-out: AC50
  AC50: 7.94 µM (inconclusive)

## Clc1ccccc1C(Nc1ncccn1)Nc1ncccn1
Cytochrome P450 2C19
  AC50: inconclusive

## CCOc1cc(/C=N/NC(=O)CCCC(=O)NC2CCCCC2)ccc1O
[4]
  IC50: 69.6 µM (active)

## Nc1ccccc1Nc1cc(-c2ccccc2)nn1-c1cccc(Cl)c1
[5]
  EC50: 5.32 µM (active)
[6]
  EC50: > 60 µM (not active)
[3]
  CC50: 26.3 µM (active)

## O=S(=O)(c1ccc(Cl)s1)N1CCc2ccccc2C1
Cytochrome P450 2D6
  AC50: 31.6 µM (inconclusive)
Cytochrome P450 1A2
  AC50: 25.1 µM (inconclusive)

## Cc1ccc(CCC(=O)Nc2ccc(N(C)C)cc2)o1
[4]
  IC50: 45.1 µM (active)

## N#CC1=C(N)OC2=C(CC/C2=C\c2ccc(F)cc2)C1c1ccc(F)cc1 (stereo not drawn)
[3]
  CC50: 8.44 µM (active)

## COc1ccc(N2CCN(c3ncccn3)CC2)cc1
[4]
  IC50: 82.9 µM (active)

## NC(=O)C1CCN(C(=O)CN2C(=O)c3ccccc3S2(=O)=O)CC1
Cytochrome P450 2C19; read-out: AC50
  AC50: 14.1 µM (inconclusive)

## O=[N+]([O-])c1ccc(/C=N/Nc2nc(N3CCCCCC3)nc(N3CCCCCC3)n2)o1
[5]
  EC50: 0.197 µM (active)
Streptococcus
  EC50: 2.35 µM (active)
[6]
  EC50: > 60 µM (not active)
[3]
  CC50: 11.6 µM (active)
[7]
  EC50: 0.504 µM (active)

## CC(C)(C)OC(=O)NCCCCCNC(=O)c1[nH]cnc1C(=O)N[C@@H](Cc1ccccc1)C(=O)OCc1ccccc1
[3]
  CC50: 12.5 µM (active)

## Clc1ccc(OCC#CCN2CCCCCC2)cc1
[4]
  IC50: 184 µM (active)

## CCOc1cc(/C=N\NC(=O)c2c(C)nc3ccccn23)ccc1O
[4]
  IC50: 76 µM (active)

## O=C(Nc1cccc(F)c1)N1CC2(CCN(C(=O)c3ccncc3)CC2)C1
Cytochrome P450 2C19
  AC50: inconclusive

## O=C1c2ccccc2S(=O)(=O)N1CCCCN1CCN(c2ncccn2)CC1 [IPSAPIRONE]
Cytochrome P450 2D6
  AC50: 20 µM (inconclusive)
Cytochrome P450 1A2
  AC50: 31.6 µM (inconclusive)

## COc1ccc(/C=C2\SC(=S)N(CCC(=O)NC3CCCC3)C2=O)cc1OC
[1]
  EC50: 153 µM (active)
[2]
  EC50: > 300 µM (not active)

## COc1cc2[nH]c(C(=O)NN)c(N)c2cc1OC
[1]
  EC50: 18.5 µM (active)
[2]
  EC50: 117 µM (active)

## CCCCCCCNC(=O)C1(CC2CC(c3ccc(Cl)cc3)=NO2)CCN(C(=O)C2(C)CC2)CC1 (stereo not drawn)
[3]
  CC50: 13.5 µM (active)

## CN1CCC2(CC1)C(C#N)=C(N)NC(S)=C2C#N
[1]
  EC50: 8.53 µM (active)
[2]
  EC50: 8.05 µM (active)

## Cc1ccccc1NC(=O)CN1CCC(n2nnc3ccccc32)CC1
Cytochrome P450 2D6
  AC50: 0.01 µM (inconclusive)

## COc1ccc(-n2c(N)c(C(=O)Nc3c(C)n(C)n(-c4ccccc4)c3=O)c3nc4ccccc4nc32)cc1
[3]
  CC50: > 50 µM (active)

## COc1cccc(-c2nc(NCCN3CCOCC3)c3ccccc3n2)c1
Cytochrome P450 2C19; read-out: AC50
  AC50: 20 µM (inconclusive)

## CC(C)Cc1nnc(NC(=O)CCC(=O)N2CC(C)CC(C)C2)s1 (stereo not drawn)
[1]
  EC50: > 300 µM (not active)
[2]
  EC50: > 300 µM (not active)

## O=C(C1CCCN(S(=O)(=O)c2cccc3nsnc23)C1)N1CC=C(c2ccccc2)CC1 (stereo not drawn)
Cytochrome P450 2D6
  AC50: 5.01 µM (inconclusive)
Cytochrome P450 1A2
  AC50: 14.1 µM (inconclusive)

## c1csc(CNc2ccc3c(c2)OCCO3)c1
[4]
  IC50: 46.4 µM (active)

## CC(C)CC(=O)C[C@H](O)C(Cl)(Cl)Cl
Cytochrome P450 2C19; read-out: AC50
  AC50: 7.94 µM (inconclusive)

## COc1cc(CN2CCC(C(=O)NC3CCCC3)CC2)cc(Br)c1O
[4]
  IC50: 127 µM (active)

## Cc1ccc2nc3c(cc(C(=O)NCC4CCCO4)c(=N)n3C3CCCC3)c(=O)n2c1 (stereo not drawn)
[1]
  EC50: > 300 µM (not active)
[2]
  EC50: > 300 µM (not active)

## C#CCCCO/N=C1/C[C@@H](O)[C@@H](O)[C@@H]2[C@@H]3C(=O)N(Cc4ccccc4)C(=O)[C@H]3CC[C@H]12
Cytochrome P450 2C19; read-out: AC50
  AC50: 5.01 µM (inconclusive)

## c1ccc2c(NC3CCNCC3)nc(-c3ccoc3)nc2c1
Cytochrome P450 2D6
  AC50: 7.94 µM (inconclusive)

## Cc1ccc(S(=O)(=O)c2c(N)n(NC(=O)c3ccccc3C)c3nc4ccccc4nc23)cc1
[3]
  CC50: 22.9 µM (active)

## CCCN(Cc1nnc(-c2ccccc2Cl)o1)C(=O)c1oc2ccccc2c1C
[3]
  CC50: 19.6 µM (active)

## O=C(O)CSc1ncnc2sc3c(c12)CCC3
Cytochrome P450 1A2
  AC50: 28.2 µM (inconclusive)
Cytochrome P450 2C19; read-out: AC50
  AC50: 39.8 µM (inconclusive)

## CCN(CC)c1ccc(NC(=O)CN(C)Cc2cccs2)cc1
[4]
  IC50: 90.9 µM (active)

## Cc1ccc2cccc(S(=O)(=O)N3CCN(c4cccc(Cl)c4)CC3)c2n1
[3]
  CC50: 46.9 µM (active)

## Cc1ccc(NC(=O)/C(=C\c2ccc3c(c2)OCO3)NC(=O)c2ccco2)cc1
Cytochrome P450 2D6
  AC50: 15.8 µM (inconclusive)
Cytochrome P450 1A2
  AC50: 11.2 µM (inconclusive)

## CCO[C@H]1OC(C(=O)Nc2ccccc2)=C[C@@H](c2ccc(C(F)(F)F)cc2)[C@@H]1CCCO
[3]
  CC50: 17.5 µM (active)
